Measurements reported in ChEMBL document CHEMBL1201862, “PubChem BioAssay data set” (2004).
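48-hour exposure; five concentrations; linearly interpolated endpoints. GI50: concentration for 50% inhibition of growth.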 Active and inactive are the calls of the source. Cut-off read from the data, not from the text of the source: active = GI50 up to about 1.1 µM and inactive = higher.

Columns and labels:
Test in all cases: NCI anticancer screen, dose series, 48 h
[1] = test system: SNB-78
[2] = test system: M19-MEL
[3] = test system: DMS-273
[4] = test system: HOP-18
[5] = test system: RXF 631
[6] = test system: DMS-114
[7] = test system: KM-20L2
[8] = test system: LXFL 529
[9] = test system: XF498

| Compound | GI50 [1] | GI50 [2] | GI50 [3] | GI50 [4] | GI50 [5] | GI50 [6] | GI50 [7] | GI50 [8] | GI50 [9] |
| --- | --- | --- | --- | --- | --- | --- | --- | --- | --- |
| C=CC(=O)N1C/C(=C\c2ccc(Cl)c(Cl)c2)C(=O)/C(=C/c2ccc(Cl)c(Cl)c2)C1 | 0.261 µM (active) | 0.184 µM (active) | 0.155 µM (active) | 0.362 µM (active) | 0.449 µM (active) | 0.12 µM (active) | 0.216 µM (active) | 0.127 µM (active) |  |
| Oc1ccc2c(O)cc(-c3ccccc3)nc2c1 | 48 µM (inactive) | 19.5 µM (inactive) | 28.1 µM (inactive) | 26.2 µM (inactive) | 30.5 µM (inactive) | 18.7 µM (inactive) | 19.9 µM (inactive) | 26.5 µM (inactive) | 25.1 µM (inactive) |
| CC(C)(C)C(C#N)(C#N)c1ccc(C(C#N)(C#N)C(C)(C)C)nn1 | 74.8 µM (inactive) | > 100 µM (inactive) | > 100 µM (inactive) |  | > 100 µM (inactive) | > 100 µM (inactive) | > 100 µM (inactive) | > 100 µM (inactive) | 38.6 µM (inactive) |
| Cc1ccc(C(c2c(O)c3ccccc3n(-c3ccccc3)c2=O)c2c(O)c3ccccc3n(-c3ccccc3)c2=O)cc1 | > 100 µM (inactive) | > 100 µM (inactive) | > 100 µM (inactive) | > 100 µM (inactive) |  | > 100 µM (inactive) | > 100 µM (inactive) | > 100 µM (inactive) | > 100 µM (inactive) |
| CC1(C)OCN(c2ccc(S(N)(=O)=O)cc2)Cn2c1nc1ccccc12 | > 100 µM (inactive) | > 100 µM (inactive) | > 100 µM (inactive) | > 100 µM (inactive) |  | > 100 µM (inactive) | > 100 µM (inactive) | > 100 µM (inactive) | > 100 µM (inactive) |
| C=CC/C=C/Cc1csc(C(C)(C)C(O)C/C=C/C(=C)CCNC(=O)OC)n1 (stereo unspecified) |  | 25.5 µM (inactive) | 3.26 µM (inactive) |  |  | < 0.0132 µM (active) | 51.2 µM (inactive) | 21.2 µM (inactive) | > 50 µM (inactive) |
| Cc1ccc(/C=C/C(=O)c2sc(C(N)=S)nc2C)cc1 | > 100 µM (inactive) | > 100 µM (inactive) | > 100 µM (inactive) | > 100 µM (inactive) |  |  | > 100 µM (inactive) |  |  |
| COc1ccc(-c2c(N)[n+]([O-])c3ccccc3[n+]2[O-])cc1OC | > 100 µM (inactive) | > 100 µM (inactive) | > 100 µM (inactive) | > 100 µM (inactive) | 86.3 µM (inactive) | > 100 µM (inactive) | > 100 µM (inactive) | > 100 µM (inactive) |  |
| CN(C)c1ccc(C(=C(c2ccc(N(C)C)cc2)c2ccc(N(C)C)cc2)c2ccc(N(C)C)cc2)cc1 | 82.2 µM (inactive) | 26.5 µM (inactive) | 15.8 µM (inactive) | 7.01 µM (inactive) | 13.6 µM (inactive) | 15.4 µM (inactive) | 16.9 µM (inactive) | 12.3 µM (inactive) |  |
| Cc1cc2c(c3oc(C4(C)OC4C4OC4C)cc(=O)c13)C(=O)c1c(O)c(C3CC(C)(N(C)C)C(O)C(C)O3)cc(C3CC(N(C)C)C(O)C(C)O3)c1C2=O (stereo unspecified) | 0.0025 µM (active) |  | 0.0025 µM (active) | 0.00069 µM (active) | 0.000161 µM (active) |  |  | 0.000227 µM (active) |  |
| Cc1cccc(C)c1NC(=O)/C(Cl)=C(/Cl)C(=O)O | 28.2 µM (inactive) | 19.9 µM (inactive) | 18.6 µM (inactive) | 20.3 µM (inactive) |  | 21.3 µM (inactive) | 6.92 µM (inactive) | 8.11 µM (inactive) | 15 µM (inactive) |
| Cn1c2ccccc2c2cc(-c3ccccc3)c3c(c21)C(=O)c1ccccc1C3=O | 15.1 µM (inactive) | 2.25 µM (inactive) | 17 µM (inactive) |  | 34 µM (inactive) | 12.5 µM (inactive) |  | 14.3 µM (inactive) | 14.6 µM (inactive) |
| COc1ccccc1NC(=O)CC(=O)N/N=C/c1ccc(N(CCC#N)S(=O)(=O)c2ccccc2)cc1 | > 100 µM (inactive) | > 100 µM (inactive) |  | > 100 µM (inactive) |  | > 100 µM (inactive) | > 100 µM (inactive) | > 100 µM (inactive) | > 100 µM (inactive) |
| Cc1ccc([N+](=O)[O-])cc1NC(=O)C(=O)Cc1nc2ccc(C(=O)c3ccccc3)cc2nc1O |  | > 100 µM (inactive) | > 100 µM (inactive) | > 100 µM (inactive) | > 100 µM (inactive) | 90.6 µM (inactive) | > 100 µM (inactive) | > 100 µM (inactive) | > 100 µM (inactive) |
| Nn1c(CCCl)nc2c(Br)cc(Br)cc2c1=O | 34 µM (inactive) | 32.1 µM (inactive) | 30.3 µM (inactive) | 33.3 µM (inactive) |  | 22.5 µM (inactive) | 26 µM (inactive) | 24.7 µM (inactive) | 20.6 µM (inactive) |
| COC(=O)C12C3C4C1C1C2C3C41C(=O)N(C(C)C)C(C)C (stereo unspecified) | > 100 µM (inactive) | > 100 µM (inactive) | > 100 µM (inactive) |  |  | > 100 µM (inactive) | > 100 µM (inactive) | > 100 µM (inactive) |  |
| O=C(CCc1nnc(S)[nH]1)Nc1cc(Cl)c(Cl)cc1Cl | > 100 µM (inactive) | > 100 µM (inactive) | > 100 µM (inactive) |  | > 100 µM (inactive) | > 100 µM (inactive) | > 100 µM (inactive) | > 100 µM (inactive) | > 100 µM (inactive) |
| Cc1cccc(C(C)(C)C)c1NC(=O)C(C#N)C1=C(Cl)C(=O)c2ccccc2C1=O (stereo unspecified) | 14.4 µM (inactive) |  | 17.8 µM (inactive) | 12 µM (inactive) |  | 16.6 µM (inactive) | 20.5 µM (inactive) | 15.5 µM (inactive) | 16 µM (inactive) |
| O=C(CC1(O)C(=O)Nc2ccc([N+](=O)[O-])cc21)c1ccc(Br)cc1 (stereo unspecified) | 23.2 µM (inactive) | 19.5 µM (inactive) |  | > 100 µM (inactive) |  | 32.1 µM (inactive) | > 100 µM (inactive) | 47.1 µM (inactive) | 32.3 µM (inactive) |
| COC(=O)C1C(/C=C/c2ccoc2)ON2CCC[C@@H]12 (stereo partly specified) | > 100 µM (inactive) | > 100 µM (inactive) | 36.2 µM (inactive) | 70.3 µM (inactive) |  | > 100 µM (inactive) | > 100 µM (inactive) | > 100 µM (inactive) |  |
| Cc1ccc(S(=O)OC2C3CC4CC(C3)CC2C4)cc1 (stereo unspecified) | > 100 µM (inactive) | > 100 µM (inactive) | > 100 µM (inactive) | > 100 µM (inactive) |  | > 100 µM (inactive) | > 100 µM (inactive) | > 100 µM (inactive) | > 100 µM (inactive) |
| CN/N=C(\C(=O)Nc1ccc([N+](=O)[O-])cc1[N+](=O)[O-])C1NC(=O)NC1=O (stereo unspecified) | > 100 µM (inactive) | > 100 µM (inactive) | 32.2 µM (inactive) | > 100 µM (inactive) |  | > 100 µM (inactive) | > 100 µM (inactive) | > 100 µM (inactive) |  |
| C=C1C(=O)OC2CC3(C)C=CC(=O)C(=C)C3CC12 (stereo unspecified) | 2.43 µM (inactive) | 1.69 µM (inactive) | 1.22 µM (inactive) | 3.06 µM (inactive) |  | 3.61 µM (inactive) | 2.28 µM (inactive) | 0.664 µM (active) | 1.72 µM (inactive) |
| COc1ccc2c(c1OC)C(=O)c1cnccc1C2=O | > 100 µM (inactive) | > 100 µM (inactive) | > 100 µM (inactive) | > 100 µM (inactive) | > 100 µM (inactive) | > 100 µM (inactive) | > 100 µM (inactive) | > 100 µM (inactive) | > 100 µM (inactive) |
| CCCCN(CCCC)CC(C(=O)Nc1ccc([N+](=O)[O-])cc1[N+](=O)[O-])/C(C)=N\NC(=O)c1ccncc1 (stereo unspecified) | > 100 µM (inactive) | > 100 µM (inactive) | > 100 µM (inactive) |  | > 100 µM (inactive) | > 100 µM (inactive) | > 100 µM (inactive) | > 100 µM (inactive) | > 100 µM (inactive) |
| COc1cccc(/C(C=O)=C(\Cl)c2ccc(OC)c(OC)c2)c1 | 13 µM (inactive) | 11.3 µM (inactive) | 14 µM (inactive) | 13.6 µM (inactive) |  | 15.1 µM (inactive) | 19.7 µM (inactive) | 11.6 µM (inactive) | 17.3 µM (inactive) |
| Clc1ccc2ns[s+]c2c1 | > 100 µM (inactive) | 1.97 µM (inactive) | 0.815 µM (active) | 11.7 µM (inactive) |  | 2.61 µM (inactive) | 0.317 µM (active) | 0.166 µM (active) | > 100 µM (inactive) |
| CC1OC(OC2C[C@](O)(C(=O)CF)Cc3c(O)c4c(c(O)c32)C(=O)c2ccccc2C4=O)CC(N)C1O (stereo partly specified) | 0.241 µM (active) | 0.0178 µM (active) | < 0.01 µM (active) |  |  | < 0.0109 µM (active) | 0.0574 µM (active) | 0.0596 µM (active) | < 0.0164 µM (active) |
| O=C(O)Cc1cccc2c(=O)cc(-c3ccccc3)oc12 [MITOFLAXONE] | > 250 µM (inactive) | > 250 µM (inactive) | > 250 µM (inactive) | 156 µM (inactive) |  | 227 µM (inactive) | > 250 µM (inactive) |  | 33.7 µM (inactive) |
